The nature of the series: Stability in HPLC mobile phases. The following applies: HPLC mobile phases: MeOH/H2O/0.05% TFA, acetonitrile/H2O. In kind it is physicochemical. An excerpt:
• 1. The HPLC purity may not be true. […] The HPLC purity is greatly dependent upon the HPLC mobile phases. With MeOH/H2O/0.05% of TFA buffer, the HPLC purity is 90%. With MeOH/H2O mobile phase, the HPLC purity is 91.7%. With acetonitrile/H2O mobile phase, the HPLC purity is 99%. […] HPLC condition for the compound of Formula 2

As for `CO[C@H]1C[C@@H]2CC[C@@H](C)[C@@](O)(O2)C(=O)C(=O)N2CCCC[C@H]2C(=O)O[C@H]([C@H](C)C[C@@H]2CC[C@@H](O)[C@H](OC)C2)CC(=O)[C@H](C)/C=C(\C)[C@@H](O)[C@@H](OC)C(=O)[C@H](C)C[C@H](C)/C=C/C=C/C=C/1C` [rapamycin], the “stability under HPLC conditions” value was “same stability issues in HPLC mobile phases”.

With `CO[C@H]1C[C@@H]2CC[C@@H](C)[C@@](O)(O2)C(=O)C(=O)N2CCCC[C@H]2C(=O)O[C@H]([C@H](C)C[C@@H]2CC[C@@H](OC(=O)CCCCCOC(=O)c3c(I)c(NC(C)=O)c(I)c(NC(C)=O)c3I)[C@H](OC)C2)CC(=O)[C@H](C)/C=C(\C)[C@@H](O)[C@@H](OC)C(=O)[C@H](C)C[C@H](C)/C=C/C=C/C=C/1C` [Formula 2], the “stability under HPLC conditions” value is “not stable under some HPLC conditions”.

The record behind these values is patent publication US11034701B2, “Drug delivery and imaging chemical conjugate, formulations and methods of use thereof” (NanoPhagix LLC, priority 2015, dated 2021).
